From ChEMBL document CHEMBL1126404, “A novel approach to the site specific delivery of potential HMG-CoA reductase inhibitors” (Bioorg Med Chem Lett, 1992)

What was measured:
[1] = target: T1, 3-hydroxy-3-methylglutaryl-coenzyme A reductase (Rattus norvegicus) (UniProt P51639); experiment: The compound was evaluated for Inhibition of rat hepatic microsomal HMG-CoA reductase at log concentration of ~-4/M
T1 sequence (whole entry): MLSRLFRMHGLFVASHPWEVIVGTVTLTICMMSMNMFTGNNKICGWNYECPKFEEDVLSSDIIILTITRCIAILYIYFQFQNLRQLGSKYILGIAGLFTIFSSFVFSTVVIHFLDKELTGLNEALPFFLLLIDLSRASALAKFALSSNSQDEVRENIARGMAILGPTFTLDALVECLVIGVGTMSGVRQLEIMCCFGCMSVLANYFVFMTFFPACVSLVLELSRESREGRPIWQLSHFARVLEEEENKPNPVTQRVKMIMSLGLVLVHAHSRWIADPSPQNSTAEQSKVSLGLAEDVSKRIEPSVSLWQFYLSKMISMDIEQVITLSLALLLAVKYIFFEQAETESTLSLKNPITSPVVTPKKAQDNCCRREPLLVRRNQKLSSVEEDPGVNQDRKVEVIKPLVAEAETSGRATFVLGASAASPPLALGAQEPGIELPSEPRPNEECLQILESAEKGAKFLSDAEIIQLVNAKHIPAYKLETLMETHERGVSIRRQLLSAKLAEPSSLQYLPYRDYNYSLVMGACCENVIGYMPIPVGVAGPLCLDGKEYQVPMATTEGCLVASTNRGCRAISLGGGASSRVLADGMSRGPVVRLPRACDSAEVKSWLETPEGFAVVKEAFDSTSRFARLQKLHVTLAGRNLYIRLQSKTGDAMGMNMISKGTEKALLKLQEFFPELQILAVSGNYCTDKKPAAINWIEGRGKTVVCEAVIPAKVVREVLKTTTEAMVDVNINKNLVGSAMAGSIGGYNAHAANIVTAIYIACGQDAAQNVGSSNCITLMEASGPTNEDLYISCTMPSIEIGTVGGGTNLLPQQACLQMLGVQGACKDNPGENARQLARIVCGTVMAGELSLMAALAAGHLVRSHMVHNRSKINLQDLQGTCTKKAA

[2] = target: T1, 3-hydroxy-3-methylglutaryl-coenzyme A reductase (Rattus norvegicus); experiment: The compound was evaluated for Inhibition of rat hepatic microsomal HMG-CoA reductase at log concentration of ~-6/M
[3] = target: T2, 3-hydroxy-3-methylglutaryl-coenzyme A reductase (Rattus norvegicus, UniProt P51639); experiment: The compound was evaluated for Inhibition of rat hepatic microsomal HMG-CoA reductase.
T2 sequence (P51639 whole entry): T1 sequence (whole entry)

[4] = target: T1, 3-hydroxy-3-methylglutaryl-coenzyme A reductase (Rattus norvegicus); experiment: The compound was evaluated for Inhibition of rat hepatic microsomal HMG-CoA reductase at log concentration of ~-5/M
[5] = target: T1, 3-hydroxy-3-methylglutaryl-coenzyme A reductase (Rattus norvegicus); experiment: The compound was evaluated for Inhibition of rat hepatic microsomal HMG-CoA reductase at log concentration of ~-3/M
[6] = target: T1, 3-hydroxy-3-methylglutaryl-coenzyme A reductase (Rattus norvegicus); experiment: The compound was evaluated for Inhibition of rat hepatic microsomal HMG-CoA reductase at log concentration of ~-8/M
[7] = target: T1, 3-hydroxy-3-methylglutaryl-coenzyme A reductase (Rattus norvegicus); experiment: The compound was evaluated for Inhibition of rat hepatic microsomal HMG-CoA reductase at log concentration of ~-5/M.
[8] = target: T1, 3-hydroxy-3-methylglutaryl-coenzyme A reductase (Rattus norvegicus); experiment: The compound was evaluated for Inhibition of rat hepatic microsomal HMG-CoA reductase at log concentration of ~-7/M.
[9] = target: T1, 3-hydroxy-3-methylglutaryl-coenzyme A reductase (Rattus norvegicus); experiment: The compound was evaluated for Inhibition of rat hepatic microsomal HMG-CoA reductase at log concentration of ~-4/M.
[10] = target: T1, 3-hydroxy-3-methylglutaryl-coenzyme A reductase (Rattus norvegicus); experiment: The compound was evaluated for Inhibition of rat hepatic microsomal HMG-CoA reductase at log concentration of ~-3/M.
[11] = target: T1, 3-hydroxy-3-methylglutaryl-coenzyme A reductase (Rattus norvegicus); experiment: The compound was evaluated for Inhibition of rat hepatic microsomal HMG-CoA reductase at log concentration of ~-6/M.
[12] = target: T1, 3-hydroxy-3-methylglutaryl-coenzyme A reductase (Rattus norvegicus); experiment: The compound was evaluated for Inhibition of rat hepatic microsomal HMG-CoA reductase at log concentration of ~-8/M.
[13] = target: T1, 3-hydroxy-3-methylglutaryl-coenzyme A reductase (Rattus norvegicus)
Description: The compound was evaluated for Inhibition of rat hepatic microsomal HMG-CoA reductase at log concentration of ~-11/M

[14] = target: T1, 3-hydroxy-3-methylglutaryl-coenzyme A reductase (Rattus norvegicus); remark: listed apart in the source
Description: The compound was evaluated for Inhibition of rat hepatic microsomal HMG-CoA reductase at log concentration of ~-9/M.

[15] = target: T1, 3-hydroxy-3-methylglutaryl-coenzyme A reductase (Rattus norvegicus); remark: listed apart in the source
Description: The compound was evaluated for Inhibition of rat hepatic microsomal HMG-CoA reductase at log concentration of ~-10/M.

| Structure (SMILES) | Activity (nM min-1 mg-1) [1] | Activity (nM min-1 mg-1) [2] | IC50 [3] [µM] | Activity (nM min-1 mg-1) [4] | Activity (nM min-1 mg-1) [5] | Activity (nM min-1 mg-1) [6] | Activity (nM min-1 mg-1) [7] | Activity (nM min-1 mg-1) [8] | Activity (nM min-1 mg-1) [9] | Activity (nM min-1 mg-1) [10] | Activity (nM min-1 mg-1) [11] | Activity (nM min-1 mg-1) [12] | Activity (nM min-1 mg-1) [13] | Activity (nM min-1 mg-1) [14] | Activity (nM min-1 mg-1) [15] |
| --- | --- | --- | --- | --- | --- | --- | --- | --- | --- | --- | --- | --- | --- | --- | --- |
| CC(=O)O[C@@H]1CC[C@@]2(C)[C@@H](C1)C[C@@H](OC(C)=O)[C@@H]1[C@@H]2C[C@H](OC(C)=O)[C@]2(C)[C@@H]([C@H](C)CC(O)CC(O)CC(=O)O)CC[C@@H]12 (some centres not stated) | 80 | 280 | 39.2 | 240 | 0 | 300 |  |  |  |  |  |  |  |  |  |
| COC(=O)CC(=O)CC(O)C[C@@H](C)[C@H]1CC[C@H]2[C@@H]3[C@H](OC(C)=O)C[C@@H]4C[C@H](OC(C)=O)CC[C@]4(C)[C@H]3C[C@H](OC(C)=O)[C@]12C (some centres not stated) |  |  |  |  |  |  | 290 | 290 | 290 | 250 | 300 | 280 |  |  |  |
| C[C@H](CC(O)CC(O)CC(=O)O)[C@H]1CC[C@H]2[C@@H]3[C@H](O)C[C@@H]4C[C@H](O)CC[C@]4(C)[C@H]3C[C@H](OC(=O)C(C)(C)C)[C@]12C (some centres not stated) |  |  | 12.3 |  |  | 280 | 30 | 270 | 0 |  | 150 |  |  |  |  |
| CC[C@@H](C)C(=O)O[C@H]1C[C@@H](C)C=C2C=C[C@H](C)[C@H](CC[C@@H](O)C[C@@H](O)CC(=O)O)[C@H]21 |  |  |  |  |  |  |  |  |  |  | 0 |  | 280 | 240 | 280 |
